Source: ChEMBL document CHEMBL6103659, “Structural Studies of the Dopamine D4 Receptor Antagonist Sonepiprazole as an Inhibitor of Human Carbonic Anhydrases” (ACS Med Chem Lett, 2025)

Legend:
Carbonic anhydrase 7 = Carbonic anhydrase 7 (Homo sapiens, UniProt P43166)
Carbonic anhydrase 2 = Carbonic anhydrase 2 (Homo sapiens, UniProt P00918)
Carbonic anhydrase 3 = Carbonic anhydrase 3 (Homo sapiens, UniProt P07451)
Carbonic anhydrase 1 = Carbonic anhydrase 1 (Homo sapiens, UniProt P00915)
Carbonic anhydrase 9 = Carbonic anhydrase 9 (Homo sapiens, UniProt Q16790)
Carbonic anhydrase 12 = Carbonic anhydrase 12 (Homo sapiens, UniProt O43570)
Carbonic anhydrase 12, sequence (O43570 whole entry): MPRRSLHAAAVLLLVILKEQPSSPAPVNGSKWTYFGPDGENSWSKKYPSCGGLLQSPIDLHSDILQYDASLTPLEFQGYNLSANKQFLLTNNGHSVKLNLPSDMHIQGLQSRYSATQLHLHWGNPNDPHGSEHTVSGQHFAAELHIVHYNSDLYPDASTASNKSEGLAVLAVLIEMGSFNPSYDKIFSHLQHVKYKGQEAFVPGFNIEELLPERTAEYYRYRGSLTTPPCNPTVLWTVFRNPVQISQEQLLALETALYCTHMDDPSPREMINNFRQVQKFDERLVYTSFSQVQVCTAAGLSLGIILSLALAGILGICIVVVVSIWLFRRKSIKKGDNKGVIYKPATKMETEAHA

Carbonic anhydrase 3, sequence (P07451 whole entry): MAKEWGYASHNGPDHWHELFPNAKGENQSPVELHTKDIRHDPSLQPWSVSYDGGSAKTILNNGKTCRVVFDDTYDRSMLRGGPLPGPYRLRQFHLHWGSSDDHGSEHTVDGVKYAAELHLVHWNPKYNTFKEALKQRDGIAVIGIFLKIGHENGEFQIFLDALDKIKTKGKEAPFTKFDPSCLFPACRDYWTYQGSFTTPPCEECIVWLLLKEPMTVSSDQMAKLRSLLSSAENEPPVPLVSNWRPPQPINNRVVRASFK
Carbonic anhydrase 1, sequence (P00915 whole entry): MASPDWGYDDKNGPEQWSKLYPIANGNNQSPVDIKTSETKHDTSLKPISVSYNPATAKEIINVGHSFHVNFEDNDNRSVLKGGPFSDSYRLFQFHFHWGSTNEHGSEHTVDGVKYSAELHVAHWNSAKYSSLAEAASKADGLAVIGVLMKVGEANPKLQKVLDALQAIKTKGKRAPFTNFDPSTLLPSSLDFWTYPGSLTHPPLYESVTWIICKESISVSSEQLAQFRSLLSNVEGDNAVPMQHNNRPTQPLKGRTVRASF
Carbonic anhydrase 7, sequence (P43166 whole entry): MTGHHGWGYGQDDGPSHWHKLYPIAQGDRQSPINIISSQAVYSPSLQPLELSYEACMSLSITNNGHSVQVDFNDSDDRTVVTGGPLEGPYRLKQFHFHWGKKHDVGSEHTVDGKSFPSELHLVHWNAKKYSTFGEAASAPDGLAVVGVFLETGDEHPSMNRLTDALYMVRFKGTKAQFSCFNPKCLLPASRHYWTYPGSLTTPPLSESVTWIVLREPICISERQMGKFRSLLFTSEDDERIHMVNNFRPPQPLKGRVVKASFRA

SMILES | Ki (Carbonic anhydrase 7) | Ki (Carbonic anhydrase 2) | Ki (Carbonic anhydrase 3) | Ki (Carbonic anhydrase 1) | Ki (Carbonic anhydrase 9) | Ki (Carbonic anhydrase 12)
C=CCN1CCCC1CNC(=O)c1cc(S(N)(=O)=O)cc(OC)c1OC (configuration not stated) [VERALIPRIDE] | 978 nM | 406 nM | > 10000 nM | 2720 nM | 31.1 nM | 23.9 nM
NS(=O)(=O)c1ccc(N2CCN(CC[C@@H]3OCCc4ccccc43)CC2)cc1 [SONEPIPRAZOLE] |  |  | > 10000 nM |  |  | 
